Results reported in patent US9645136B2, “Methods of treating a meiotic kinesin-associated disease” (DANA-FARBER CANCER INSTITUTE, INC., priority 2008, dated 2017).

What was measured:
[1] = system: MDA-231 cells; experiment: Multipolar spindles in MDA-231 cells; type: cell-based
Method: The parallel between Drosophila and mammalian cells extended to the genetic requirements for centrosome clustering. To examine this further, siRNA experiments were performed with mammalian HSET (Ned homolog) and Myo10 genes, as follows. Mixed pools (ON-TARGETplus and SMART pools) of 4 different oligos of siRNAs against human HSET, human Myo10 and mouse Myo10 were purchased from Dharmacon, siRNA against mouse HSET was purchased from Ambion. Non-specific scrambled siRNA was used as control (Ambion). The oligo sequence of the siRNAs are set forth below in Table 2:
Cells were transfected with Lipofectamine RNAiMAX (Invitrogen) with a final siRNA concentration of 50 nM according to the manufacturer's instructions. Cells were analyzed/harvested three days after transfection (unless specified otherwise). FIGS. 5 and 6 show the results of Western blots showing the depletion of HSET (FIG. 5) or Myo10 (FIG. 6) after three days of siRNA in MDA-231 and MCF-7 cells. FIG. 7 is a bar graph showing the percentage of cells with multipolar spindles in MCF-7 or MDA-231 cells upon treatment with siRNA of HSET or Myo10. […] As in S2 cells, Myo10-induced multipolarity is not a consequence of cytokinesis failure.
Several lines of evidence support this hypothesis. First, live-cell imaging was used to correlate interphase cell shape with the pattern of cell division during mitosis. MDA-231 (breast cancer cells containing extra centrosomes) that assumed an elongated or polarized shape in interphase, almost uniformly underwent bipolar divisions. […] Second, in tetraploid BSC-1 cells, whose thick RFs are readily visualized by DIC imaging, it was noted that a strong correlation between the positioning of the RFs and whether cells underwent a bipolar (bipolar distribution of RFs) or multipolar division (isotropic distribution of RFs). Third, RFs accumulate specific proteins, such as the ERM protein ezrin, which are implicated in cortical heterogeneity and thus local force generation on astral MTs. […]

[2] = system: S2 cells; experiment: Centrosome clustering defects in S2 cells after short drug treatment; type: cell-based, Drosophila
Method: In addition to genes that likely contribute to the bundling and organization of spindle MTs, unexpectedly, genes involved in the organization and regulation of the actin cytoskeleton, such as the formin Form3/INF2 were also identified (Chhabra, E. S. and Higgs, H. N. (2006) J Biol Chem 281:26754-26767). […] Experiments using a brief (2 hr) treatment with small molecules that disrupt the actin cytoskeleton similarly induce multipolar mitoses.
More specifically, cells were treated with Latrunculin (40 μM LatA), Cytochalasin D (20 μM) for 2 hours and the percentage of centrosome clustering defects was determined.
Next, it was determined if cortical contraction is required for centrosome clustering. Cells were exposed, for 2 hours, to soluble tetravalent lectin concanavalin A (Con-A), which crosslinks the plasma membrane and thus globally blocks cortical contraction (Canman, J. C. and Bement, W. M. (1997) J Cell Sci 110 (Pt 16):1907-1917). The percentage of centrosome clustering defects after Con-A treatment was determined.
Low concentrations of calyculin A (CA) inhibit the myosin light chain phosphatase (MLCP) and promote myosin II activation without altering its distribution (Gupton, S. M. and Waterman-Storer, C. M. (2006) Cell 125:1361-1374). […] Thus, in cells with extra centrosomes, actin and actin-based contractility influence whether mitosis is bipolar or multipolar.
It was also determined whether the actin and intrinsic spindle forces act cooperatively to prevent multipolar mitoses. […] To farther evaluate this idea, time-lapse spinning disc microscopy was used to define the trajectory of centrosome movement in Ned-depleted S2 cells. […] Moreover, the bulk of the centrosome movement was directed away from the spindle and towards the cell cortex. […] Thus, cortical forces collaborate with intrinsic spindle bundling forces to organize multiple centrosomes.

[3] = system: MDA-231, MMEDX 4N and N1E-115; experiment: Multipolar spindles after transient actin or astral MT disruption, cell lines with multiple centrosomes; type: cell-based
Method: (§1) To determine the effect of transient actin disruption in mammalian cells, the cell lines MCF-7, MDA-231, MMEDX 4N and N1E-115 were treated with DMSO, LatA (5 μM) or Dihydrocytochalasin B (DCB) (10 μM) for 2 hours. The MCF-7 cell line contains 2 centrosomes whereas the other cell lines contain greater than 2 centrosomes. […] These multipolar spindles result from declustering of extra centrosomes and were not due to the splitting/fragmentation of centrioles. Actin presumably influences centrosome positioning via forces on astral MTs.

[4] = system: S2 cells; experiment: Live cell imaging of centrosome clustering in S2 cells; type: cell-based, Drosophila
Method: Relative to controls (14.7±6.4 min), there was a 1.5 fold delay in centrosome clustering in 13/15 LatA-treated cells (22.1±12.3 min). […] The cell cycle delay induced by LatA treatment is likely due to activation of the SAC, as evidenced by prominent labeling of kinetochores with BubR1 in LatA-treated cells.

[5] = system: MCF-7; experiment: Multipolar spindles in cells with normal centrosome number; type: cell-based; conditions: cells plated on FN 30 μg/ml
Method: as §1
Cells were transfected with Lipofectamine RNAiMAX (Invitrogen) with a final siRNA concentration of 50 nM according to the manufacturer's instructions. Cells were analyzed/harvested three days after transfection (unless specified otherwise). FIGS. 5 and 6 show the results of Western blots showing the depletion of HSET (FIG. 5) or Myo10 (FIG. 6) after three days of siRNA in MDA-231 and MCF-7 cells. […]
Several lines of evidence support this hypothesis. […] Second, in tetraploid BSC-1 cells, whose thick RFs are readily visualized by DIC imaging, it was noted that a strong correlation between the positioning of the RFs and whether cells underwent a bipolar (bipolar distribution of RFs) or multipolar division (isotropic distribution of RFs). […]

[6] = 2 hours, LatA 5 μM, DCB 10 μM, vs DMSO

COC[C@@H]([C@H](O)[C@H](O)C(=O)NCC[C@H](C)c1nc(/C=C/C[C@@H]2O[C@]3(C[C@@H](O)[C@@H]2C)O[C@H]([C@H](C[C@H](O)[C@H](C)[C@H](O)[C@H](C)/C=C(C)/C(C)=C/C=C/C(C)=C\C#N)OC)[C@H](OP(=O)(O)O)C3(C)C)co1)N(C)C [CA, calyculin A]
FN-induced increase of multipolar spindles ([1]; CA added to cells plated on FN 30 μg/ml): reversed | centrosome clustering defect induced by Ned RNAi ([2]; CA treatment of Ned RNAi cells): partially rescued | centrosome clustering defects ([2]; wild type S2 cells, low concentration CA, 15% without): 9%

C=C1[C@@H](C)[C@H]2[C@H](Cc3ccccc3)NC(=O)[C@]23OC(=O)CC[C@H](O)CCC[C@@H](C)C/C=C/[C@H]3[C@@H]1O [Dihydrocytochalasin B]
frequency of multipolar spindles [3, 6]: significant increase

C/C1=C/C(=O)O[C@@H]2C[C@@H](CC[C@H](C)/C=C\C=C\CC1)O[C@@](O)([C@@H]1CSC(=O)N1)C2 [LatA, Latrunculin]
frequency of multipolar spindles [3, 6]: significant increase | spindle multipolarity ([2]; LatA treatment in Ned or Bj1/RCC1-depleted cells): combinatorial increase | delay in centrosome clustering relative to controls ([4]; 13/15 LatA-treated cells): 1.5 fold | time of centrosome clustering ([4]; 13/15 LatA-treated cells, controls 14.7±6.4 min): 22.1 ± 12.3 min | cells that completely failed to cluster extra centrosomes ([4]; LatA-treated cells): 2/15

CC(C)(C)n1nc(-c2ccc(Cl)cc2)c2c(N)ncnc21 [PP2]
multipolar spindles ([1]; src kinase inhibitor PP2): induced multipolar spindles

COC(=O)Nc1nc2ccc(C(=O)c3cccs3)cc2[nH]1 [nocodazole]
frequency of multipolar spindles ([3]; low dose nocodazole, cells with extra centrosomes): increased the frequency of multipolar spindles

concanavalin A [Con-A]
centrosome clustering defects / multipolar mitoses ([2]; 2 hours treatment): induced centrosome clustering defects

fibronectin [FN]
frequency of multipolar spindles [5]: not in MCF-7 cells | frequency of multipolar spindles ([1]; cells plated on FN 30 μg/ml): increased the frequency of multipolar spindles
